Experimental data taken from patent publication US6734211B1, “Compositions and methods for promoting nerve regeneration” (Oregon Health & Sciences University, priority 1999, dated 2004).

Legend:
[1] = test system: SH-SY5Y human neuroblastoma cells; assay: Neurite outgrowth of SH-SY5Y cells in the presence of NGF; assay type: cell-based; conditions: for Mean Length of Top 50% of Neuritic Processes: 168 hours; for neurite outgrowth, effect of the compound: with NGF, concentration dependence
Experimental: This Example illustrates that FK506 and geldanamycin promote nerve regeneration by a common mechanism. SH-SY5Y human neuroblastoma cells were maintained in DMEM medium (GIBCO) supplemented with 10% fetal calf serum (SIGMA), 50 IU/mL penicillin, and […] streptomycin (GIBCO) at 37° C. in 7% CO2. Cells were plated in six-well plates at 1×10^6 cells/well and treated with […] aphidicolin (SIGMA). At five days, cells were washed, treated with nerve growth factor (NGF) (Boehringer Mannheim, Indianapolis, Ind.) at 10 ng/mL ([…]) (Calbiochem-Novabiochem Int'l., La Jolla, Calif.) and/or geldanamycin (0.1, 1, and 10 nM) (Calbiochem-Novabiochem, La Jolla, Calif.) dissolved in the DMEM medium. Media was changed at 96 hours and replaced with fresh media containing the compounds (NGF plus FK506 and/or geldanamycin) for an additional 72 hours (total time, 168 hours). The top 50% of axonal lengths were selected for statistical analysis. All experiments were run in duplicate wells and repeated at least twice for reproducibility.
(§1) For analysis of neurite process length of cells, 20 fields per well were randomly photographed at 72 and 168 hours. Neurite lengths were measured on photographic prints using a Houston Instrument HI-PAD digitizing tablet connected to an IBM XT computer with appropriate software (Bioquant IV, R&M Biometrics, Nashville, Tenn.); only those processes greater than two times the cell body length were measured. Data from identically treated wells were not different and were therefore combined. […] Histograms were compared using a Mann-Whitney U test, which makes no assumptions about the shape of the distribution.
Neuroblastoma SH-SY5Y cells were used to examine human neurite outgrowth in vitro and to explore which neuroimmunophilin mediates the effect.

[2] = test system: hippocampal neurons of wild-type mice; assay: Axonal length in primary neuronal hippocampal cultures from wild-type mice; assay type: cell-based
Experimental: (§2) FKBP-12 knockout mice (Shou, et al., Nature 391:489, 1998) were used to test whether FKBP-12 is necessary for FK506's ability to increase nerve elongation. Such mice usually die from severe cardiomyopathy between embryonic day 14.5 (E14.5) and birth, consistent with the known association between FKBP-12 and calcium release channels. […] Primary neuronal hippocampal cultures were prepared from E18.5 homozygote FKBP-12 knockout and wild-type mice.

[3] = test system: hippocampal neurons of FKBP-12 knockout mice; assay: Axonal length in primary neuronal hippocampal cultures from FKBP-12 knockout mice; assay type: cell-based
Experimental: as §2

sciatic nerve = conditions: rat, following a sciatic nerve crush lesion; cited from earlier work
hippocampal cells = assay: Neurite outgrowth of hippocampal cells after 72 hours; assay type: cell-based
Experimental: as §1
Utilizing the in vitro assay described in Example 2, the effect of radicicol on neurite outgrowth was investigated. Hippocampal cells were treated with radicicol at a concentration of 0.1 ng/mL and at a concentration of 10 ng/mL. The neurite outgrowth for radicicol treated cells was compared to the outgrowth for untreated cells and for cells treated with 10 ng/mL of NGF.
Utilizing the in vitro assay described in Example 2, the effect of heat alone or in combination with various compounds on neurite outgrowth was investigated. […] FIG. 5 also illustrates that a combination of heat treatment and treatment with both NGF, and Hsp-90 antibodies is not as effective as the combination of heat and NGF treatment. […]

[4] = geldanamycin 10 nM co-treatment

## C=CC[C@@H]1/C=C(\C)C[C@H](C)C[C@H](OC)[C@H]2O[C@@](O)(C(=O)C(=O)N3CCCC[C@H]3C(=O)O[C@H](/C(C)=C/[C@@H]3CC[C@@H](O)[C@H](OC)C3)[C@H](C)[C@@H](O)CC1=O)[C@H](C)C[C@@H]2OC [FK506]
[1]; FK506 10 nM + NGF 10 ng/mL
  Mean Length of Top 50% of Neuritic Processes: 156 µm
[1]; FK506 10 pM-10 nM
  neurite outgrowth (cumulative histograms of neurite lengths): increases neurite outgrowth
[1]; FK506 100 nM
  neurite outgrowth (cumulative histograms of neurite lengths): less effective
[1]; FK506 1000 nM or greater
  neurite outgrowth (cumulative histograms of neurite lengths): neurite outgrowth was inhibited
[1]
  neurite outgrowth, effect of the compound: stimulate neurite outgrowth in a concentration dependent manner
[2]; FK506-treated cultures, wild-type, mean±S.E.M.
  Mean axonal lengths of hippocampal neurons: 276±11.1
[2]; wild-type cells
  increase over non-treated values: 26%
[3]; FK506-treated cultures, FKBP-12 knockout, mean±S.E.M.
  Mean axonal lengths of hippocampal neurons: 264±18.2
[3]; FKBP-12 knockout cells
  increase over non-treated values: 30%
Sciatic nerve
  functional recovery and axonal regeneration: speed functional recovery and axonal regeneration in the rat in a dose-dependent manner

## COC1=C2C[C@@H](C)C[C@H](OC)[C@H](O)[C@@H](C)/C=C(\C)[C@H](OC(N)=O)[C@@H](OC)/C=C\C=C(/C)C(=O)NC(=CC1=O)C2=O [Geldanamycin, geldanamycin]
[1]; geldanamycin 1 nM + NGF 10 ng/mL
  Mean Length of Top 50% of Neuritic Processes: 128 µm
[1]; geldanamycin 10 nM + NGF 10 ng/mL
  Mean Length of Top 50% of Neuritic Processes: 110 µm
[1]; geldanamycin 0.1 nM co-treatment
  effect on neurite outgrowth promotion by FK506, dexamethasone or β-estradiol: less effective in inhibiting the neurite outgrowth-promoting effect of all these compounds
[1]; [4]
  effect on neurite outgrowth promotion by FK506, dexamethasone or β-estradiol: inhibited neurite outgrowth promotion by FK506 , dexamethasone or β-estradiol
  effect on neurite outgrowth promotion by FKBP-52 antibody: enhanced the neurite outgrowth-promoting effect of the FKBP-52 antibody
[1]; geldanamycin 0.1-10 nM alone
  neurite outgrowth: increased neurite outgrowth in a concentration-dependent fashion
[1]
  neurite outgrowth, effect of the compound: stimulate neurite outgrowth in a concentration dependent manner

## COc1cccc(-c2cc(=O)c3ccccc3o2)c1N [PD 098059]
Hippocampal cells; 2 concentrations
  effect on neurite outgrowth by NGF and FK-506 (FIG. 6): blocks neurite outgrowth by NGF and FK-506 in a concentration dependent fashion
  effect on neurite outgrowth by radicicol (FIG. 7): blocks the action of radicicol in a concentration dependent fashion
Hippocampal cells; highest concentration
  effect on neurite outgrowth by radicicol (FIG. 7): almost completely blocks activity

## [Na+].[Na+].[O]=[Mo](=[O])([O-])[O-] [molybdate, sodium molybdate]
[1]; molybdate 20 mM
  effect on neurite outgrowth promotion by FK506: reduced the neurite outgrowth promotion elicited by FK506
  effect on neurite outgrowth promotion by FKBP-52 antibody: inhibited the neurite outgrowth-promoting effects of FKBP-52 antibody
  effect on neurite outgrowth promotion by β-estradiol and geldanamycin: completely [Mann-Whitney U test (α=0.05)] inhibited the neurite outgrowth-promoting effect of β-estradiol and geldanamycin
  neurite outgrowth-promoting effect of molybdate in the presence of dexamethasone: significantly [Mann-Whitney U test (α=0.05)] reduced compared to molybdate alone
[1]; molybdate 20 mM itself
  neurite outgrowth: agonist effect on neurite outgrowth

## C[C@@H]1C[C@H]2O[C@@H]2/C=C\C=C\C(=O)Cc2c(Cl)c(O)cc(O)c2C(=O)O1 [radicicol]
Hippocampal cells; radicicol 0.1 ng/mL and 10 ng/mL vs NGF 10 ng/mL
  neurite outgrowth (cumulative histogram, FIG. 3): more effective than NGF alone in stimulating outgrowth

## C[C@]12CC[C@@H]3c4ccc(O)cc4CC[C@H]3[C@@H]1CC[C@@H]2O [β-estradiol]
[1]; 50 nM each
  neurite outgrowth compared with dexamethasone: greater positive effect on neurite outgrowth than dexamethasone (50 nM)
[1]
  neurite outgrowth, effect of the compound: significantly increased neurite outgrowth in SH-SY5Y cells in a concentration-dependent manner

B1: NGF: nerve growth factor (Boehringer Mannheim) (protein, UniProt P01139 122-241, looked up)
Beta-nerve growth factor: SSTHPVFHMGEFSVCDSVSVWVGDKTTATDIKGKEVTVLAEVNINNSVFRQYFFETKCRASNPVESGCRGIDSKHWNSYCTTTHTFVKALTTDEKQAAWRFIRIDTACVCVLSRKATRRG
modifications: Beta-nerve growth factor
[1]; NGF 10 ng/mL alone
  Mean Length of Top 50% of Neuritic Processes: 108 µm
Hippocampal cells; NGF in combination with heat
  neurite outgrowth (cumulative histogram, FIG. 4): more effective than either heat or NGF treatment alone in stimulating neurite outgrowth
